{"source": "paper PMC9458250", "about": "“6-Formyl Umbelliferone, a Furanocoumarin from Angelica decursiva L., Inhibits Key Diabetes-Related Enzymes and Advanced Glycation End-Product Formation” (Molecules, 2022)", "key": {"[1]": {"test_system": "insulin-resistant C2C12 skeletal muscle cells", "assay": "2-NBDG glucose uptake assay", "type": "cell-based", "method": "The C2C12 cells were cultured in 96-well plates (2 × 10^5 cells/well) with DMEM containing 10% FBS and 1% P/S at 37 °C and exposed to a 5% CO2 atmosphere. When the cells reached confluence, they were subjected to differentiation in DMEM supplemented with 2% horse serum for 5 days. Then the cells were starved in low-glucose serum-free DMEM for 24 h. Subsequently, the 2-NBDG assay was performed to evaluate glucose uptake. The cells were treated with various concentrations of 6-FU and insulin (100 nM) for 12 h, followed by 20 μM 2-NBDG for 24 h. To stop the response, the cells were washed three times with ice-cold PBS, and then the 2-NBDG fluorescence intensity was measured on a microplate reader (FL × 800, Bio-Tek Instruments Inc., Winooski, VT, USA) at 490 nm (excitation) and 535 nm (emission). Five replicate wells were established, and each experiment was replicated three times. Rosiglitazone was used as the positive control."}, "[2]": {"target": "T1, human recombinant aldose reductase (HRAR) (Homo sapiens, UniProt P15121)", "T1 construct": "purchased Wako Chemicals (Osaka, Japan)", "assay": "HRAR inhibition assay (NADPH absorption decrease, DL-glyceraldehyde substrate)", "type": "biochemical", "method": "HRAR inhibition was examined as described by Ali et al.. Briefly, AR activity was determined by measuring the decrease in NADPH absorption at 340 nm over a period of 1 min on an Ultrospec®2100pro UV/Visible spectrophotometer (Cytiva, Buckinghamshire, UK). SWIFT II Applications software (Amersham Biosciences, NJ, USA) was used for all data analyses. […] The inhibition percentage (%) was calculated as described in the RLAR assay, except that the DA sample per min value represented the reduction in absorbance for 1 min with the test samples and substrate. The ability of each sample to inhibit HRAR was expressed as an IC50 value (µM), which was calculated from the log-dose inhibition curve.\n(§1) To determine the inhibition mechanism, enzymatic inhibition at various concentrations of 6-FU was evaluated by monitoring the effects of different concentrations of substrates via Dixon plots. Dixon plots for PTP1B inhibition by 6-FU were obtained in the presence of 0.5, 1, and 2 mM pNPP. The test concentrations of 6-FU in the PTP1B kinetic analysis were 0, 1.25, 2.5, 5.0, and 10 µM. Dixon plots for α-glucosidase inhibition by 6-FU were performed in the presence of 0.625, 1.25, and 2.5 mM pNPG. The test concentrations of 6-FU used in the α-glucosidase kinetic analysis were 0, 31.25, 62.5, 125, and 250 µM. Both enzymatic procedures followed the PTP1B and α-glucosidase assay methods. Dixon plots for HRAR inhibition by 6-FU were performed in the presence of 5, 10, and 20 mM of DL-glyceraldehyde as the substrate. The test concentrations of 6-FU used in the HRAR kinetic analysis were 0, 0.08, 0.4, 2, and 10 µM. The Dixon plot is a graphical method [1/enzyme velocity (1/V) against inhibitor concentration (I)] for determining the type of enzyme inhibition and was used to determine the dissociation or inhibition constant (Ki) for the enzyme–inhibitor complex. Thus, the type of enzyme inhibition was determined by interpreting the Lineweaver–Burk plots, and the inhibition constants (Ki) were determined by interpreting the Dixon plots."}, "[3]": {"target": "T2, PTP1B (human recombinant) (Homo sapiens, UniProt P18031)", "T2 construct": "purchased Biomol International LP (Plymouth Meeting, PA, USA)", "T2 sequence (P18031 1-435)": "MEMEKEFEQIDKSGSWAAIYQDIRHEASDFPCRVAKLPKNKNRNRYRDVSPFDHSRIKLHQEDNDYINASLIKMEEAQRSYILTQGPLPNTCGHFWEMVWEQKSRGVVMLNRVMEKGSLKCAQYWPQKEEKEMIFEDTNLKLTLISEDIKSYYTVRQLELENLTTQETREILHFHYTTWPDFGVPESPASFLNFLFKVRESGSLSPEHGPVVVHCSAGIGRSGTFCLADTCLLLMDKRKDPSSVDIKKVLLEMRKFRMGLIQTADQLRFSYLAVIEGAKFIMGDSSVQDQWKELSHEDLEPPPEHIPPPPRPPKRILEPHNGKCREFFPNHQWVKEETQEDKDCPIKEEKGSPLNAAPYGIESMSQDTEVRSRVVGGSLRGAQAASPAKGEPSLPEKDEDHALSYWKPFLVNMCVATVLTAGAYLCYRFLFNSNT", "assay": "PTP1B inhibition assay using pNPP", "type": "biochemical", "method": "The PTP1B inhibitory activity was evaluated using pNPP according to the modified procedure reported by Ali et al..\nas §1"}, "[4]": {"target": "Yeast α-glucosidase (Saccharomyces cerevisiae, UniProt P53341)", "sequence (P53341 whole entry)": "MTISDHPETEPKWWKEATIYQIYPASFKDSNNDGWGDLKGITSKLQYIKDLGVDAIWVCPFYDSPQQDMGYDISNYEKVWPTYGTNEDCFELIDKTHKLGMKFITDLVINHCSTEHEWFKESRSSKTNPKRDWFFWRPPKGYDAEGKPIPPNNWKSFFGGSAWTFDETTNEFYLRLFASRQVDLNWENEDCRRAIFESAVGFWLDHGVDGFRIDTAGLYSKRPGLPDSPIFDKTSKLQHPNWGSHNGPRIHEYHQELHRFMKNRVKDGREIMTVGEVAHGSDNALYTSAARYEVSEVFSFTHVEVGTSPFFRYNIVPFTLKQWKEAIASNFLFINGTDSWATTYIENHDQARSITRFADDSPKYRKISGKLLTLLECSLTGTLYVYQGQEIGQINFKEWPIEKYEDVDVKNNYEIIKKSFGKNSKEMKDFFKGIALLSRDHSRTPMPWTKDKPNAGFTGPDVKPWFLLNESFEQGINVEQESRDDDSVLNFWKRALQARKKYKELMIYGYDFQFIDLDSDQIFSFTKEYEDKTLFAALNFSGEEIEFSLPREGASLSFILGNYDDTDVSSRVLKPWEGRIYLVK", "assay": "α-glucosidase inhibitory assay using pNPG", "type": "biochemical", "settings": "Dixon and Lineweaver-Burk plots", "method": "as §1"}, "[5]": {"test_system": "PTP1B expression in insulin-resistant C2C12 cells", "assay": "PTP1B expression by Western blot", "type": "cell-based", "settings": "40 μM, 24 h", "method": "Insulin-resistant C2C12 cells (2 × 10^5 cells/well) in 6-well plates were treated with different concentrations of 6-FU for 24 h. After stimulation with 100 nM insulin for 30 min at 37 °C, the cells were washed three times with ice-cold PBS, collected, and lysed with sample buffer (50 mM HEPES, pH 7.5, 150 mM NaCl, 2.5 mM EDTA, 0.5% NP40, 1 mM PMSF, 1 mM DTT, 0.2% aprotinin, 0.5% leupeptin, 20 mM NaF, and 1 mM Na3VO4) on ice. After incubation for 30 min, the insoluble materials were removed by centrifugation at 25,000× g for 20 min. The protein concentrations were determined using a modified Bradford protein assay kit. Total protein (50 μg) was subjected to dodecyl sulfate–polyacrylamide gel electrophoresis and transferred to a polyvinylidene difluoride membrane. The membranes were blocked in blocking buffer (5% skim milk in Tris-buffered saline containing 0.1% Tween 20 (TBST)) and incubated with primary antibodies overnight at 4 °C, followed by incubation with appropriate secondary antibodies for 4 h at room temperature. The membranes were washed three times with TBST for 40 min. The bands were detected using Super Signal West Pico chemiluminescence substrate (Pierce, Rockford, IL, USA) according to the manufacturer’s instructions. The immunoreactive protein bands were detected using an Odyssey scanning system (LI-COR, Lincoln, NE, USA). […]"}, "[6]": {"test_system": "advanced glycation end-product (AGE) formation", "assay": "Inhibition of fluorescent AGE formation in HSA-glucose-fructose system", "parameters": "species or system human", "settings": "for percentage of inhibition of AGE formation: week 4 of incubation", "method": "The formation of glycated HSA-fructose-glucose was examined according to a previously published method. To prepare the AGE reaction solution, 20 mg/mL HSA in 50 mM sodium phosphate buffer (pH 7.4) was added to 0.2M fructose, 0.2 M glucose, and 0.02% sodium azide to prevent bacterial growth. The reaction mixture (3.8 mL) was then mixed with 200 μL of various concentrations of 6-FU and aminoguanidine hydrochloride dissolved in 10% DMSO. The control was prepared using HSA and sugars, and a blank was prepared using only HSA in the same buffer. The reaction mixtures were incubated at 37 °C for 4 weeks. Aliquots of the reaction mixtures were then assayed to determine the presence of AGEs.\nThe ability of the isolates to inhibit AGE formation was evaluated according to a previously published method with slight modifications. To prepare the AGE reaction solution, 20 mg/mL HSA in 50mM sodium phosphate buffer (pH 7.4) was added to 0.2M fructose and 0.2 M glucose, along with 0.02% sodium azide to prevent bacterial growth. The reaction mixture (950 μL) was then combined with various concentrations of 6-FU (50 μL, test concentration ranging from 0.8 to 100 μM) dissolved in 10% DMSO. After incubating the mixture at 37 °C, AGE formation in the aliquots was determined at weekly intervals using a spectrofluorometric detector (FLx800 microplate fluorescence reader, Bio-Tek Instrument, Inc., Winooski, VT, USA) with excitation and emission wavelengths of 350 nm and 450 nm, respectively. The nucleophilic hydrazine compound aminoguanidine was used as a reference in the AGE assay."}, "[7]": {"test_system": "C2C12 cells", "assay": "C2C12 cell viability (MTT assay)", "type": "cell-based", "settings": "24 h, up to 40 μM (tested up to 80 μM)", "method": "The C2C12 cell line (skeletal muscle cells) was purchased from the American Type Culture Collection (Manassas, VA, USA). The C2C12 cells were cultured at 37 °C in DMEM supplemented with 10% FBS and P/S (Hyclone, Mordialloc, VIC, Australia) in a humidified atmosphere with 5% CO2. The tetrazolium dye colorimetric test (MTT) was used to determine cell viability. First, the C2C12 cells were cultured in 96-well plates (2 × 10^5 cells/well) for 24 h. After they reached 90% confluence, they were treated with various concentrations of 6-FU. After 24 h of incubation, the MTT reagent was added to each well, and the plate was incubated for 2 h at 37 °C. The media were removed, and the wells were washed twice with PBS (pH 7.4). To measure the proportion of surviving cells, the medium was replaced with 100 μL DMSO (100%). The resulting absorbance values were measured at 570 nm with a microplate reader (Molecular Devices, Sunnyvale, CA, USA)."}, "[8]": {"settings": "Dixon and Lineweaver-Burk plots"}}}
{"smiles": "O=Cc1cc2ccc(=O)oc2cc1O", "note": "[6-FU, 6-formyl umbelliferone]", "values": [{"measurement": "insulin-stimulated 2-NBDG uptake", "setting": "[1]; 10, 20, and 40 μM, compared with the control", "value": "significantly enhanced"}, {"measurement": "IC50", "setting": "[2]", "value": "5.11 ± 0.21", "unit": "µM"}, {"measurement": "Ki", "setting": "[2]", "value": 4.87, "unit": "µM"}, {"measurement": "Inhibition type HRAR", "setting": "[2]; [8]", "value": "Mixed"}, {"measurement": "IC50", "setting": "[3]", "value": "1.13 ± 0.12", "unit": "µM"}, {"measurement": "Ki", "setting": "[3]", "value": 1.72, "unit": "µM"}, {"measurement": "Inhibition type PTP1B", "setting": "[3]; [8]", "value": "Competitive"}, {"measurement": "Inhibition type α-Glucosidase", "setting": "[4]", "value": "Mixed"}, {"measurement": "PTP1B expression level", "setting": "[5]", "value": "decreased"}, {"measurement": "IC50", "setting": "[6]; AGE formation, mean ± SEM of triplicates", "value": "2.15 ± 0.13", "unit": "µM"}, {"measurement": "percentage of inhibition of AGE formation", "setting": "[6]; 0.8 μM", "value": 24.04, "unit": "%"}, {"measurement": "percentage of inhibition of AGE formation", "setting": "[6]; 4.0 μM", "value": 55.73, "unit": "%"}, {"measurement": "percentage of inhibition of AGE formation", "setting": "[6]; 20 μM", "value": 64.18, "unit": "%"}, {"measurement": "percentage of inhibition of AGE formation", "setting": "[6]; 100 μM", "value": 82.60, "unit": "%"}, {"measurement": "cytotoxicity (cell viability, MTT)", "setting": "[7]", "value": "not cytotoxic"}]}
{"smiles": "O=C(O)Cn1c(=O)n(Cc2ccc(Br)cc2F)c(=O)c2ccc(Cl)cc21", "note": "[Zenarestat, zenarestat, reference compound]", "values": [{"measurement": "IC50", "setting": "[2]", "value": "0.63 ± 0.01", "unit": "µM"}]}
{"smiles": "CN(CCOc1ccc(CC2SC(=O)NC2=O)cc1)c1ccccn1", "note": "(stereo not drawn) [rosiglitazone, reference compound]", "values": [{"measurement": "insulin-stimulated glucose uptake", "setting": "[1]; 5 μM", "value": "significantly increased"}]}
{"smiles": "N=C(N)NN", "note": "[Aminoguanidine, aminoguanidine, reference compound]", "values": [{"measurement": "percentage of inhibition of AGE formation", "setting": "[6]; 100 μM", "value": 57.23, "unit": "%"}]}
